This passage reports inhibition and IC50 results from ChEMBL document CHEMBL1139158, “Prenyloxyphenylpropanoids as novel lead compounds for the selective inhibition of geranylgeranyl transferase I” (Bioorg Med Chem Lett, 2007).

The species named for experiment [1] is Homo sapiens. The experiment in a line: Inhibition of GGTase 1 at 100 uM.
For experiment [2], the system named is Protein farnesyltransferase (Homo sapiens). In words: Inhibition of FTase at 100 uM.
The nature of experiment [3]: Inhibition of GGTase 1. Further details: species or system Homo sapiens.

Usually inhibition stands for the relative decrease from the control value, in per cent. High values mean a strong effect, low ones a weak effect. For `CCOC(=O)/C=C/c1ccc(OC/C=C(\C)CCC=C(C)C)c(OC)c1`, the inhibition was determined as 3% in experiment [1] and 5.5% in experiment [2].
The matching figures for `COc1c(OC/C=C(\C)CCC=C(C)C)ccc2ccc(=O)oc12`: 34.2% and 15.5%.
As a reminder, the IC50 is the concentration at which inhibition is half-maximal. The low end stands for greater potency, the high end for weaker potency. For `COc1cc(/C=C/C(=O)O)ccc1OC/C=C(\C)CC/C=C(\C)CCC=C(C)C`, the inhibition in experiment [1] worked out at 83.9%; in experiment [2] it was 11%. In experiment [3], this compound returned an IC50 of 66 µM.
As to `COc1cc(C(=O)O)ccc1OC/C=C(\C)CCC=C(C)C`, the inhibition in experiment [1] and in experiment [2] was 0% each time.
In turn, `CC(C)=CCC/C(C)=C/CC/C(C)=C/COc1ccc(/C=C/C(=O)O)cc1` showed an inhibition in experiment [1] of 93.5%. This compound displayed an IC50 in experiment [3] of 28 µM.
For the compound `COc1cc(/C=C/C(=O)O)ccc1OCC=C(C)C`, the inhibition in experiment [1] is 31%; in experiment [2], 9.3%.
The compound `CC(C)=CCC/C(C)=C/COc1ccc(C(=O)O)cc1` registered an inhibition in experiment [1] of 0%.
Regarding `COc1cc(C(=O)O)ccc1OCC=C(C)C`, the inhibition in experiment [1] was 0%; in experiment [2], 2.4%.
